According to US12655116B2, “Substituted isophthalic acid diamides” (Bayer Aktiengesellschaft, priority 2020, dated 2026):

Assays:
ABUTH [1] = experiment: Pre-emergence herbicidal action against ABUTH; type: in vivo, Abutilon theophrasti; conditions: Abutilon theophrasti, 504 h; for pest or weed control at 80 g/ha: scored visually after 3 weeks vs untreated controls (100% = plants have died, 0% = like control plants); for pest or weed control at 20 g/ha: dosage 20 g/ha, scored visually after 3 weeks vs untreated controls, 100% = plants have died, 0% = like control plants, read-out: Pre-emergence action against ABUTH (herbicidal activity in percent)
In short: (§1)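 Visual rating at 3 weeks vs untreated pots; 0–100% scale, 100% = plants died. Treatment: aqueous WP/EC spray onto covering soil, 600–800 l/ha, 0.2% wetter, seeds in sandy loam.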

ALOMY [2] = experiment: Pre-emergence herbicidal action against ALOMY; type: in vivo, Alopecurus myosuroides; conditions: Alopecurus myosuroides, 504 h, pre-emergence; for pest or weed control at 80 g/ha: scored visually after 3 weeks vs untreated controls (100% = plants have died, 0% = like control plants)
In short: as §1

AMARE [3] = experiment: Pre-emergence herbicidal action against AMARE; type: in vivo, Amaranthus retroflexus; conditions: Amaranthus retroflexus, 504 h, scored visually after 3 weeks vs untreated controls, 100% = plants have died, 0% = like control plants
In short: as §1

ECHCG [4] = experiment: Pre-emergence herbicidal action against ECHCG; type: in vivo, Echinochloa crus-galli; conditions: Echinochloa crus-galli, 504 h, 80 g/ha
In short: as §1

LOLRI [5] = experiment: Pre-emergence herbicidal action against LOLRI; type: in vivo, Lolium rigidum; conditions: Lolium rigidum, 504 h, 80 g/ha
In short: as §1

MATIN [6] = experiment: Pre-emergence herbicidal action against MATIN; type: in vivo, Matricaria inodora; conditions: Tripleurospermum inodorum, 504 h; for pest or weed control at 20 g/ha: dosage 20 g/ha; for pest or weed control at 80 g/ha: dosage 80 g/ha
In short: as §1

PHBPU [7] = experiment: Pre-emergence herbicidal action against PHBPU; type: in vivo, Pharbitis purpurea; conditions: Ipomoea purpurea, 504 h, dosage 80 g/ha
In short: as §1

POLCO = experiment: Pre-emergence herbicidal action against POLCO; type: in vivo, Polygonum convolvulus; conditions: Fallopia convolvulus, 504 h, dosage 80 g/ha
In short: as §1

SETVI [8] = experiment: Pre-emergence herbicidal action against SETVI; type: in vivo, Setaria viridis; conditions: Setaria viridis, 504 h; for pest or weed control at 80 g/ha: dosage 80 g/ha
In short: as §1

VERPE [9] = experiment: Pre-emergence herbicidal action against VERPE; type: in vivo, Veronica persica; conditions: Veronica persica, 504 h; for pest or weed control at 20 g/ha: dosage 20 g/ha; for pest or weed control at 80 g/ha: dosage 80 g/ha
In short: as §1

VIOTR [10] = experiment: Pre-emergence herbicidal action against VIOTR; type: in vivo, Viola tricolor; conditions: Viola tricolor, 504 h; for pest or weed control at 20 g/ha: dosage 20 g/ha; for pest or weed control at 80 g/ha: dosage 80 g/ha
In short: as §1

DIGSA [11] = experiment: Pre-emergence herbicidal action against DIGSA; type: in vivo, Digitaria sanguinalis; conditions: Digitaria sanguinalis, 504 h; for pest or weed control at 20 g/ha: dosage 20 g/ha; for pest or weed control at 80 g/ha: dosage 80 g/ha
In short: as §1

ABUTH [12] = experiment: Post-emergence herbicidal action against ABUTH; type: in vivo, Abutilon theophrasti; conditions: Abutilon theophrasti, 504 h, visual assessment about 3 weeks after treatment vs untreated controls; for pest or weed control at 5 g/ha: dosage 5 g/ha; for pest or weed control at 20 g/ha: dosage 20 g/ha
In short: (§2)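 Greenhouse pot plants in sandy loam were sprayed at the one-leaf stage, 2 to 3 weeks after sowing, with WP or EC formulations as aqueous suspension or emulsion (600 to 800 l/ha water, 0.2% wetting agent). About 3 weeks later, damage was scored visually against untreated controls as % action (100% = dead, 0% = like control).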

ALOMY [13] = experiment: Post-emergence herbicidal action against ALOMY; type: in vivo, Alopecurus myosuroides; conditions: Alopecurus myosuroides, 504 h, visual assessment about 3 weeks after treatment vs untreated controls; for pest or weed control at 5 g/ha: dosage 5 g/ha; for pest or weed control at 20 g/ha: dosage 20 g/ha
In short: as §2

AMARE [14] = experiment: Post-emergence herbicidal action against AMARE; type: in vivo, Amaranthus retroflexus; conditions: Amaranthus retroflexus, 504 h, 20 g/ha, visual assessment about 3 weeks after treatment, 100% = plants have died, 0% = like control plants
In short: as §2

AVEFA [15] = experiment: Post-emergence herbicidal action against AVEFA; type: in vivo, Avena fatua; conditions: Avena fatua, 504 h, visual assessment about 3 weeks after treatment, 100% = plants have died, 0% = like control plants
In short: as §2

ECHCG [16] = experiment: Post-emergence herbicidal action against ECHCG; type: in vivo, Echinochloa crus-galli; conditions: Echinochloa crus-galli, 504 h; for pest or weed control at 20 g/ha: dosage 20 g/ha
In short: as §2

LOLRI [17] = experiment: Post-emergence herbicidal action against LOLRI; type: in vivo, Lolium rigidum; conditions: Lolium rigidum, 504 h, dosage 20 g/ha
Protocol: Seeds of monocotyledonous and dicotyledonous weed and crop plants are laid out in sandy loam soil in wood-fiber pots, covered with soil and cultivated in a greenhouse under good growth conditions. 2 to 3 weeks after sowing, the test plants are treated at the one-leaf stage. The compounds of the invention, formulated in the form of wettable powders (WP) or as emulsion concentrates (EC), are then sprayed onto the green parts of the plants in the form of an aqueous suspension or emulsion at a water application rate equivalent to 600 to 800 l/ha, with addition of 0.2% wetting agent. After the test plants have been left to stand in the greenhouse under optimal growth conditions for about 3 weeks, the action of the preparations is assessed visually in comparison to untreated controls (herbicidal action in percent (%): 100% activity=the plants have died, 0% activity=like control plants). […] The tables below illustrate, in an illustrative manner, the post-emergence herbicidal action of the compounds of the invention, the herbicidal activity being stated in percent.

MATIN [18] = experiment: Post-emergence herbicidal action against MATIN; type: in vivo, Matricaria inodora; conditions: Tripleurospermum inodorum, 504 h; for pest or weed control at 20 g/ha: dosage 20 g/ha
In short: as §2

PHBPU [19] = experiment: Post-emergence herbicidal action against PHBPU; type: in vivo, Pharbitis purpurea; conditions: Ipomoea purpurea, 504 h; for pest or weed control at 5 g/ha: dosage 5 g/ha; for pest or weed control at 20 g/ha: dosage 20 g/ha
In short: as §2

SETVI [20] = experiment: Post-emergence herbicidal action against SETVI; type: in vivo, Setaria viridis; conditions: Setaria viridis, 504 h; for pest or weed control at 20 g/ha: dosage 20 g/ha
In short: as §2

VERPE [21] = experiment: Post-emergence herbicidal action against VERPE; type: in vivo, Veronica persica; conditions: Veronica persica, 504 h
In short: as §2

VIOTR [22] = experiment: Post-emergence herbicidal action against VIOTR; type: in vivo, Viola tricolor; conditions: Viola tricolor, 504 h, 20 g/ha
In short: as §2

DIGSA [23] = experiment: Post-emergence herbicidal action against DIGSA; type: in vivo, Digitaria sanguinalis; conditions: Digitaria sanguinalis, 504 h
In short: as §2

AVEFA [24] = experiment: Pre-emergence herbicidal action against AVEFA; type: in vivo, Avena fatua; conditions: Avena fatua, 504 h, pre-emergence
In short: as §1

[25] = 20 g/ha, scored visually after 3 weeks, 100% = plants have died, 0% = like control plants

## CNC(=O)c1c(C(F)(F)C(F)(F)F)ccc(C(=O)Nc2nnnn2C)c1Cl [Example 1-165]
ABUTH [1]
  pest or weed control at 80 g/ha: 100%
  pest or weed control at 20 g/ha: 90%
ALOMY [2]
  pest or weed control at 80 g/ha: 100%
AMARE [3]
  pest or weed control at 20 g/ha: 100%
  pest or weed control at 80 g/ha: 100%
ECHCG [4]
  pest or weed control at 80 g/ha: 100%
LOLRI [5]
  pest or weed control at 80 g/ha: 80%
MATIN [6]
  pest or weed control at 20 g/ha: 100%
  pest or weed control at 80 g/ha: 100%
PHBPU [7]
  pest or weed control at 80 g/ha: 100%
POLCO
  pest or weed control at 80 g/ha: 90%
SETVI [8]
  pest or weed control at 80 g/ha: 100%
VERPE [9]
  pest or weed control at 20 g/ha: 80%
  pest or weed control at 80 g/ha: 100%
VIOTR [10]
  pest or weed control at 20 g/ha: 90%
  pest or weed control at 80 g/ha: 100%
DIGSA [11]
  pest or weed control at 20 g/ha: 100%
  pest or weed control at 80 g/ha: 100%
ABUTH [12]
  pest or weed control at 5 g/ha: 90%
  pest or weed control at 20 g/ha: 90%
ALOMY [13]
  pest or weed control at 5 g/ha: 90%
  pest or weed control at 20 g/ha: 100%
AMARE [14]
  pest or weed control at 20 g/ha: 90%
AVEFA [15]
  pest or weed control at 20 g/ha: 90%
ECHCG [16]
  pest or weed control at 20 g/ha: 90%
LOLRI [17]
  pest or weed control at 20 g/ha: 80%
MATIN [18]
  pest or weed control at 20 g/ha: 80%
PHBPU [19]
  pest or weed control at 5 g/ha: 90%
  pest or weed control at 20 g/ha: 90%
SETVI [20]
  pest or weed control at 20 g/ha: 90%
VERPE [21]
  pest or weed control at 5 g/ha: 80%
  pest or weed control at 20 g/ha: 80%
VIOTR [22]
  pest or weed control at 20 g/ha: 80%
DIGSA [23]; 5 g/ha
  pest or weed control at 5 g/ha: 90%
DIGSA [23]
  pest or weed control at 20 g/ha: 90%

## CCCNC(=O)c1c(C(F)(F)F)ccc(C(=O)Nc2nnnn2CC)c1C [Example 2-32]
ABUTH [1]
  pest or weed control at 80 g/ha: 100%
  pest or weed control at 20 g/ha: 100%
ALOMY [2]
  pest or weed control at 80 g/ha: 100%
ALOMY [2]; [25]
  pest or weed control at 20 g/ha: 90%
AMARE [3]
  pest or weed control at 20 g/ha: 100%
  pest or weed control at 80 g/ha: 100%
AVEFA [24]; 80 g/ha
  pest or weed control at 80 g/ha: 90%
AVEFA [24]; [25]
  pest or weed control at 20 g/ha: 90%
ECHCG [4]
  pest or weed control at 80 g/ha: 100%
LOLRI [5]
  pest or weed control at 80 g/ha: 90%
MATIN [6]
  pest or weed control at 20 g/ha: 100%
  pest or weed control at 80 g/ha: 100%
PHBPU [7]
  pest or weed control at 80 g/ha: 90%
POLCO
  pest or weed control at 80 g/ha: 90%
SETVI [8]; dosage 20 g/ha
  pest or weed control at 20 g/ha: 100%
SETVI [8]
  pest or weed control at 80 g/ha: 100%
VERPE [9]
  pest or weed control at 20 g/ha: 90%
  pest or weed control at 80 g/ha: 100%
VIOTR [10]
  pest or weed control at 20 g/ha: 100%
  pest or weed control at 80 g/ha: 100%
DIGSA [11]
  pest or weed control at 20 g/ha: 100%
  pest or weed control at 80 g/ha: 100%
ABUTH [12]
  pest or weed control at 5 g/ha: 90%
  pest or weed control at 20 g/ha: 90%
ALOMY [13]
  pest or weed control at 5 g/ha: 90%
  pest or weed control at 20 g/ha: 100%
AMARE [14]
  pest or weed control at 20 g/ha: 100%
AVEFA [15]; 5 g/ha
  pest or weed control at 5 g/ha: 90%
AVEFA [15]
  pest or weed control at 20 g/ha: 100%
ECHCG [16]; dosage 5 g/ha
  pest or weed control at 5 g/ha: 80%
ECHCG [16]
  pest or weed control at 20 g/ha: 90%
LOLRI [17]
  pest or weed control at 20 g/ha: 80%
MATIN [18]; dosage 5 g/ha
  pest or weed control at 5 g/ha: 90%
MATIN [18]
  pest or weed control at 20 g/ha: 90%
PHBPU [19]
  pest or weed control at 5 g/ha: 80%
  pest or weed control at 20 g/ha: 90%
SETVI [20]; dosage 5 g/ha
  pest or weed control at 5 g/ha: 80%
SETVI [20]
  pest or weed control at 20 g/ha: 100%
VERPE [21]
  pest or weed control at 5 g/ha: 90%
  pest or weed control at 20 g/ha: 90%
DIGSA [23]
  pest or weed control at 20 g/ha: 90%
